Drawing on ChEMBL document CHEMBL5725243, “Cyclopentylbenzamide derivatives and their use for the treatment of psychotic and cognitive disorders” (2016), this text covers IC50 for three molecules.

The target of assay [1] is T1, Orexin receptor type 2 (Homo sapiens, UniProt O43614).
T1 sequence (O43614 whole entry): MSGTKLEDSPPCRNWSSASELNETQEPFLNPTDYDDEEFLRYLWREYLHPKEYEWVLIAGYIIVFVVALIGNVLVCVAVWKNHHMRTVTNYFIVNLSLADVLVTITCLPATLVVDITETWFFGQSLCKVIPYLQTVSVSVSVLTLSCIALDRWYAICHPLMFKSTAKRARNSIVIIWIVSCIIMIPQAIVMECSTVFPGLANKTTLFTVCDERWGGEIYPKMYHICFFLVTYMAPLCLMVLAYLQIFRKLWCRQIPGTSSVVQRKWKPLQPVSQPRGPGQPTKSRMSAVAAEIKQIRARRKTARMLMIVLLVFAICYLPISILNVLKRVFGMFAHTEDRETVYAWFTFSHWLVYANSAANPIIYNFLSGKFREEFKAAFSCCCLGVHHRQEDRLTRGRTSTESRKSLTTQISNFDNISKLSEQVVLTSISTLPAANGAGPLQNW
The assay can be described thus: (§1) Fluorescent Imaging Plate Reader (FLIPR) Assay: Orexin antagonist activity was determined by measuring changes in intracellular calcium levels using a Ca2+ sensitive fluorescent dye. The changes in fluorescent signal were monitored by Fluorescent Imaging Plate Reader (FLIPR) technology available from Molecular Devices, LLC, U.S.A. Orexin mediated increases in intracellular Ca2+ concentration were readily detected upon activation with orexin-A. Twenty-four hours prior to the assay, RBL-2H3 cells stably expressing either human orexin receptor 1 or human orexin receptor 2 were seeded in cell culture medium in black, clear-bottom 384-well plates (commercially available from Corning Inc., U.S.A.) and grown overnight at 37° C., 5% CO2. On the day of the assay, cell culture media was removed and cells were loaded with Calcium 5 Dye (commercially sold by Molecular Devices, LLC, U.S.A.) for 1 hour at 37° C., 5% CO2. Test compounds (at 10 point half log concentration response curves from 10 uM) were added to cells for 15 minutes prior to the addition of orexin-A to all wells, to achieve a final concentration that produces approximately an 80% maximal response. The IC50 values were determined from ten point concentration response curves. Curves were generated using the average of two wells for each data point. Format: cell-based. A general note: A change in cytosolic calcium serves as a functional read-out for many receptors and channels.

The target in assay [2] is T2, Orexin/Hypocretin receptor type 1 (Homo sapiens, UniProt O43613).
T2 sequence (O43613 whole entry): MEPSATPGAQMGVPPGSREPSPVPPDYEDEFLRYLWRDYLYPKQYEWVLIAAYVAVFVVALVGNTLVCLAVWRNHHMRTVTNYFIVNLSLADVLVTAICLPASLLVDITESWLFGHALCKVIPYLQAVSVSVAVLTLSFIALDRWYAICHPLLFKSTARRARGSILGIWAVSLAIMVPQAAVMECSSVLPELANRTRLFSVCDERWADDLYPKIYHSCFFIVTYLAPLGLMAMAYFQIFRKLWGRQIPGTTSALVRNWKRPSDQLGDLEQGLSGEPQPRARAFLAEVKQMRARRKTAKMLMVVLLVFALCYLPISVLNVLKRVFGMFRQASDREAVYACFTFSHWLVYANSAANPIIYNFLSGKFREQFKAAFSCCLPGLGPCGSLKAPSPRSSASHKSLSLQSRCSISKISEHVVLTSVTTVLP
The description is as §1. Format: cell-based.

A word on the IC50: it is the concentration that gives 50% inhibition. As for `COc1cccc(OC)c1C(=O)N[C@@H]1COC[C@@H]1Nc1nc2ccc(Cl)cc2s1` (relative stereo), the figures for the concentration for half-maximal inhibition (IC50) in assay [1] and in assay [2] were 1400 nM and 220 nM, respectively.
In the case of `CCOc1cccc(OCC)c1C(=O)N[C@@H]1CCC[C@@H]1Nc1nc2ccccc2o1`, the IC50 in assay [1] is 1200 nM; in assay [2], 130 nM.
In the case of `Cc1ccc(-n2nccn2)c(C(=O)N[C@H]2CCC[C@@H]2Nc2ncc3ccccc3n2)c1`, the IC50 in assay [1] was over 10000 nM; in assay [2], 24 nM.
